Several values for one entry are separate records, joined by “and”; a condition that tells them apart may be missing. Equal entries are not always repeated.
Legend:
[1] = biological target: T1, 5-hydroxytryptamine receptor 6 (Homo sapiens, UniProt P50406)
[2] = biological target: T2, 5-hydroxytryptamine receptor 7 (Homo sapiens, UniProt P34969); assay: Binding affinity towards human 5-hydroxytryptamine 7 receptor
[3] = biological target: 5-hydroxytryptamine receptor 7 (Rattus norvegicus, UniProt P32305); assay: Binding affinity towards rat 5-hydroxytryptamine 7 receptor
[4] = biological target: T2, 5-hydroxytryptamine receptor 7
[5] = biological target: T1, 5-hydroxytryptamine receptor 6; assay: Antagonistic activity towards 5-hydroxytryptamine 6 receptor was evaluated in cAMP assay; format: functional
[6] = Antagonistic activity of compound in cAMP accumulation was evaluated; format: functional
[7] = Antagonistic activity of compound in 5-HT induced cAMP accumulation; format: functional
[8] = biological target: T3, 5-hydroxytryptamine receptor 5A (Homo sapiens, UniProt P47898); assay: Binding affinity towards human 5-hydroxytryptamine 5A receptor
[9] = biological target: T4, 5-hydroxytryptamine receptor 5A (Mus musculus, UniProt P30966); assay: Binding affinity towards mouse 5-hydroxytryptamine 5A receptor was evaluated using [3H]LSD as radioligand
[10] = biological target: T1, 5-hydroxytryptamine receptor 6; assay: Binding affinity towards human 5-hydroxytryptamine 6 receptor was evaluated using [125I]-2-iodo LSD as radioligand
[11] = biological target: Serotonin 2 (5-HT2) receptor (Homo sapiens, UniProt P41595+P28223+P28335); assay: Binding affinity towards 5-HT2 receptor; format: protein assay
[12] = biological target: T4, 5-hydroxytryptamine receptor 5A; assay: Binding affinity towards murine 5-hydroxytryptamine 5A receptor
[13] = biological target: T3, 5-hydroxytryptamine receptor 5A; assay: Binding affinity towards human 5-hydroxytryptamine 5A receptor was evaluated using [3H]-5-CT as radioligand
[14] = biological target: T1, 5-hydroxytryptamine receptor 6; assay: Binding affinity towards human 5-hydroxytryptamine 6 receptor was evaluated using [3H]-LSD as radioligand
[15] = biological target: T2, 5-hydroxytryptamine receptor 7; remark: listed apart in the source
[16] = biological target: T5, Alpha-1A adrenergic receptor (Homo sapiens, UniProt P35348); assay: Binding affinity towards alpha-1-adrenergic receptor
T5 sequence (P35348 whole entry): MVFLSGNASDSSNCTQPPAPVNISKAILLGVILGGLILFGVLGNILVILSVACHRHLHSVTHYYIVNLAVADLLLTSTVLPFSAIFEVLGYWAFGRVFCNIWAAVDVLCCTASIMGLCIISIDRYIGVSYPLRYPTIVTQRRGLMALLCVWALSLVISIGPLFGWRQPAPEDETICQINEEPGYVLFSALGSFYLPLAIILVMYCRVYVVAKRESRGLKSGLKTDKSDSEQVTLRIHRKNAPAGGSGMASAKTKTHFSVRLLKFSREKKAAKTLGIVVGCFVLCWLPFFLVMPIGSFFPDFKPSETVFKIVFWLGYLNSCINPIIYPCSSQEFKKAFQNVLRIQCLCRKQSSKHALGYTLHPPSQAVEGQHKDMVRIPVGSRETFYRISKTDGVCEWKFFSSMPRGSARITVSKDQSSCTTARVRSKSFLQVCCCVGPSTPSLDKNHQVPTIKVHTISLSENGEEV

[17] = biological target: T6, Alpha-2A adrenergic receptor (Homo sapiens, UniProt P08913); assay: Binding affinity towards Alpha-2 adrenergic receptor
T6 sequence (P08913 whole entry): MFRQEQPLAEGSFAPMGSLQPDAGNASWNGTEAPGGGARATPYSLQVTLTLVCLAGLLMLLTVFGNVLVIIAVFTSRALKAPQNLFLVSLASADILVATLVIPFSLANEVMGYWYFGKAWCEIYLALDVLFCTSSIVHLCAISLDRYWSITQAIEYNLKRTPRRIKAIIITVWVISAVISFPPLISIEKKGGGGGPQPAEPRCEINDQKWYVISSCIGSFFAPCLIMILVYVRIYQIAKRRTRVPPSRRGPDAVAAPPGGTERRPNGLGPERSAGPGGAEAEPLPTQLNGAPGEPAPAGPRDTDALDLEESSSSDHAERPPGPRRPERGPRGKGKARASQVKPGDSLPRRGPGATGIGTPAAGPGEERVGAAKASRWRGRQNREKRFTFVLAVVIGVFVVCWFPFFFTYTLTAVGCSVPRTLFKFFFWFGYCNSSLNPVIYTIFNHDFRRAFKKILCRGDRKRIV

[18] = biological target: T7, 5-hydroxytryptamine receptor 3A (Homo sapiens, UniProt P46098); assay: Binding affinity towards 5-hydroxytryptamine 3 receptor
T7 sequence (P46098 whole entry): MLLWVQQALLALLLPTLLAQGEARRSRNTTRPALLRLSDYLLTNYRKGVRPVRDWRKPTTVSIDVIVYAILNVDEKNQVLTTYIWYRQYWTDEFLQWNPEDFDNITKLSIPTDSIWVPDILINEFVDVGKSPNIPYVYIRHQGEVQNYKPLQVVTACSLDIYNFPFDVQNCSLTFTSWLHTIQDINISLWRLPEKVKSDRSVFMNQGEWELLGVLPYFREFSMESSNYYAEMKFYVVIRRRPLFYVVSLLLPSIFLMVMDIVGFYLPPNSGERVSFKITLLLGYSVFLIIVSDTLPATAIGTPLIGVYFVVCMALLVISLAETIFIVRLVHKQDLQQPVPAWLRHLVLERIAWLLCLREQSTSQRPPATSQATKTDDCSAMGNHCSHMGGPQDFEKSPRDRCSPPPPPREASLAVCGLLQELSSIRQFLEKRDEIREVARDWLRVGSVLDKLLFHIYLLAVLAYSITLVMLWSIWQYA

T1 sequence (P50406 whole entry): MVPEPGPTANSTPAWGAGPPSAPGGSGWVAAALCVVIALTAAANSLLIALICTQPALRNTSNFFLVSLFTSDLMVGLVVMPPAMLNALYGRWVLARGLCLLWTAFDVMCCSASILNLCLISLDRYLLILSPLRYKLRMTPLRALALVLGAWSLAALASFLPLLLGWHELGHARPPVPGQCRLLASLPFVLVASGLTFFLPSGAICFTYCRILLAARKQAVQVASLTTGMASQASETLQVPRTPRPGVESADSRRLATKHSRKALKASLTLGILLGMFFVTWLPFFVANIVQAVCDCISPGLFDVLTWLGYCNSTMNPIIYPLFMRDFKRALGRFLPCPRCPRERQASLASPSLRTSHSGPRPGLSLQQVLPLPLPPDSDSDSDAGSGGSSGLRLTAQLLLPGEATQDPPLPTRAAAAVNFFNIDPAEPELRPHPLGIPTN
T3 sequence (P47898 whole entry): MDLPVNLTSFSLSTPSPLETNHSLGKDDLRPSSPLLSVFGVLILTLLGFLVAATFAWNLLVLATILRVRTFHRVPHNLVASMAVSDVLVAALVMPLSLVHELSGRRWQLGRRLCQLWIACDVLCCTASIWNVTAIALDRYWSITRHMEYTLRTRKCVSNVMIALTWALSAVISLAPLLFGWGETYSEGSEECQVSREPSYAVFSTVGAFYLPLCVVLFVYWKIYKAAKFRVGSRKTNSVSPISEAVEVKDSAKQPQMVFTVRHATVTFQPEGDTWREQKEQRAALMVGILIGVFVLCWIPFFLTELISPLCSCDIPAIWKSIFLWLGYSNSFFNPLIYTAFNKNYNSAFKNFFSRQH
T4 sequence (P30966 whole entry): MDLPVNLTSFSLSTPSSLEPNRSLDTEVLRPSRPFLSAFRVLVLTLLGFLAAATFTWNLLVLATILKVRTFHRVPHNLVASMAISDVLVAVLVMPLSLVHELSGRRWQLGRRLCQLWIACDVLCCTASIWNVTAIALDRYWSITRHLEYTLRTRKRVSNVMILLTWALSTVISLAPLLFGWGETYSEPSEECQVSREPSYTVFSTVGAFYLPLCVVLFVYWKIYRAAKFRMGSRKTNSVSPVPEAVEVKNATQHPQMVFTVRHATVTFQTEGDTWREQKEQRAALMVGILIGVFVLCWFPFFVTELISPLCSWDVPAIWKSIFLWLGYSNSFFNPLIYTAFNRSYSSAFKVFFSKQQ
T2 sequence (P34969 whole entry): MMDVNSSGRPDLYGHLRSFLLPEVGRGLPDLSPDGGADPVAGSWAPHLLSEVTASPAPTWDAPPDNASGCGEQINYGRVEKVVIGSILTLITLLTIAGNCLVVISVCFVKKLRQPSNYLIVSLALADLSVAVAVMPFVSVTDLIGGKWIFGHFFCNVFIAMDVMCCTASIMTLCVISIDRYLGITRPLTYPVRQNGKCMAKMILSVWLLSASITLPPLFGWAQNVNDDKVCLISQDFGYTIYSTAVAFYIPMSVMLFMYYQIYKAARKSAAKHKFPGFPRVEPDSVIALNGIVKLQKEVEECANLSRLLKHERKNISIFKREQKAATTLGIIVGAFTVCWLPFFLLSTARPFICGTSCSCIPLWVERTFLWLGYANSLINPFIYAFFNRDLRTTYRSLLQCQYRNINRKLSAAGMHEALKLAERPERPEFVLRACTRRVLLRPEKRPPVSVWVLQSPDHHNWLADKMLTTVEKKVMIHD
Sequence of 5-hydroxytryptamine receptor 7 (Rattus norvegicus, UniProt P32305) (P32305 whole entry): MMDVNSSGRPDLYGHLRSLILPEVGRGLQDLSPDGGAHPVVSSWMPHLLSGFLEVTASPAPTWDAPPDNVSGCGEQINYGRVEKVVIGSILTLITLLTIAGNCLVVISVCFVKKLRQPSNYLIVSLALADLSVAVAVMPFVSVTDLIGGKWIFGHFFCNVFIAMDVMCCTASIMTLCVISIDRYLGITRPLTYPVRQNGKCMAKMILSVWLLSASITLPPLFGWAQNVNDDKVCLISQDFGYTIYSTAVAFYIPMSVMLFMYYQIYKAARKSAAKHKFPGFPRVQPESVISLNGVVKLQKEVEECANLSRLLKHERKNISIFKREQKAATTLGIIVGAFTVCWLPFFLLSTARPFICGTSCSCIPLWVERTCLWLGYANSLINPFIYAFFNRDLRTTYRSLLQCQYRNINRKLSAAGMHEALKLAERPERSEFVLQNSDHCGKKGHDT

O=c1[nH]c2ccccc2n1C1CCN(CCCC(c2ccc(F)cc2)c2ccc(F)cc2)CC1 [PIMOZIDE]
Ki [1]: 71 nM

O=S(=O)(c1cccc2ccccc12)n1ccc2ccc(N3CCN4CCCC4C3)cc21 (stereo not given)
Ki [1]: 0.7 nM

CO[C@]1(C)c2cccc3c2-c2c1ccc1c2[C@@H](C3)N(C)CC1
Ki [2]: 1.1 nM

CN1CCN(C2=Nc3ccccc3Nc3sccc32)CC1
Ki ([3]; read-out: Ki): 104 nM

CO[C@@]1(C)c2cccc3c2-c2c1ccc1c2[C@@H](C3)N(C)CC1
Ki [2]: 1.1 nM

COc1ccc2c(c1)c(CCN(C)C)cn2S(=O)(=O)c1ccc(N)cc1
Ki [1]: 2 nM

CC1CCN(CC[C@H]2CCCN2S(=O)(=O)c2cccc(O)c2)CC1
pKb [4]: 8.3

CN(C)Cc1cn(S(=O)(=O)c2ccccc2)c2ccccc12
IC50 [5]: 800 nM | Ki [1]: 3.1 nM

C1CCN2CCNCC2C1 (stereo not given)
Ki [1]: 5 nM

COc1ccc(NS(=O)(=O)c2sc3ccc(Cl)cc3c2C)cc1N1CCN2CCC[C@H]2C1
pKb [6]: 7.7

CNc1cc(NS(=O)(=O)c2ccc(N)cc2)nc(NC)n1
pA2 [7]: 6.75

C[N+](C)(C)CCc1c[nH]c2ccc(O)cc12
Ki [8]: > 10000 nM

COc1cc(N)c(Cl)cc1C(=O)NC1CN2CCC1CC2 (stereo not given) [ZACOPRIDE]
Ki [8]: 16000 nM

Cc1[nH]c2ccc(O)cc2c1CCN
Ki [8]: > 10000 nM | Ki [9]: > 10000 nM | Ki [10]: 400 nM

CNC(=O)Cn1c2c(c3ccccc31)CCN(CCCCC13CCCc4cccc(c41)NC3=O)C2 (stereo not given)
Ki [2]: 4 nM | Ki [11]: > 1000 nM

CN(C)CCc1cn(S(=O)(=O)c2ccccc2)c2ccccc12
Ki [1]: 4.1 nM

Nc1ccc(S(=O)(=O)Nc2cc(N)nc(Br)c2)cc1
Ki [1]: 55 nM

CN1CCc2ccc3c4c2[C@H]1Cc1cccc(c1-4)[C@H]3N
Ki [2]: 13.4 nM

CN1CCN(C2=Nc3ccccc3Oc3ccc(Cl)cc32)CC1 [LOXAPINE]
Ki [1]: 15 nM

O=C1Nc2cccc3c2C1(CCCCN1CC=C(c2ccccc2)CC1)CCC3 (stereo not given)
Ki [11]: 98 nM

Cn1c2c(c3ccccc31)CNCC2
Ki [12]: 5300 nM

COc1ccc2c(CCN(C)C)c[nH]c2c1
Ki [1]: 8000 nM

COc1ccc2c(c1)c(CCN(C)C)cn2Cc1ccccc1
Ki [1]: 6.5 nM

COc1cccc2c(CCN(C)C)c[nH]c12
Ki [1]: 19600 nM

COc1ccc(NS(=O)(=O)c2ccc(Br)cc2)cc1N1CCN(C)CC1
pKb [6]: 7.8

Nc1ccc(S(=O)(=O)Nc2cc(Br)cc3[nH]ccc23)cc1
Ki [1]: 50 nM

O=C1Nc2cccc3c2C1(CCCN1CCN(c2ccccc2)CC1)CCC3 (stereo not given)
Ki [11]: 16 nM

CC1CCCN(CCC(C)N(C)S(=O)(=O)c2cccc3ccccc23)C1 (stereo not given)
Ki [2]: 32 nM and 125 nM and 65 nM

O=C(CCCN1CCC2(CC1)C(=O)NCN2c1ccccc1)c1ccc(F)cc1 [SPIPERONE]
Ki [13]: 63000 nM | Ki [14]: 1590 nM | Ki [1]: 1590 nM

CN(C)CC/C=C1/c2ccccc2Sc2ccc(Cl)cc21 [CHLORPROTHIXENE]
Ki ([3]; read-out: Ki): 5.6 nM | Ki [1]: 3 nM

Clc1cccc(N2CCNCC2)c1 [CHLOROPHENYLPIPERAZINE]
Ki [9]: 8700 nM | Ki [10]: 2300 nM | Ki [12]: 8700 nM

CN1CCN(C2=Nc3cc(Cl)ccc3Nc3ccccc32)CC1 [CLOZAPINE]
Ki [13]: 1000 nM

CN1C[C@@H](NS(=O)(=O)N(C)C)C[C@@H]2c3cccc4[nH]cc(c34)C[C@H]21 [DISULERGINE]
Ki ([3]; read-out: Ki): 21 nM | Ki [2]: 18 nM

COc1cc(CC(C)N)c(OC)cc1I (stereo not given)
Ki [8]: > 1000 nM

c1ccc2nc(N3CCNCC3)ccc2c1 [QUIPAZINE]
Ki [9]: > 10000 nM | Ki [12]: > 10000 nM

CNS(=O)(=O)c1ccc2[nH]cc(CCN(C)C)c2c1
Ki [13]: 5000 nM | Ki [8]: 5000 nM | Ki [14]: 2600 nM | Ki [15]: 950 nM

Oc1ccccc1N1CCNCC1
Ki [12]: 215 nM

CN1CCc2cccc3c2[C@H]1Cc1cccc(-c2ccccc2)c1-3
Ki [2]: 9.78 nM

NCCc1c[nH]c2ccc(C(N)=O)cc12
Ki [13]: 20 nM | Ki [8]: 20 nM | Ki [14]: 720 nM

CO[C@H]1c2cccc3c2c(cn3S(=O)(=O)c2ccc(C)cc2)C[C@@H]1N
Ki [1]: 130 nM

CNc1cc(NC)cc(NS(=O)(=O)c2ccc(N)cc2)c1
Ki [1]: 200 nM

COc1ccc2c(c1)c1c(n2S(=O)(=O)c2ccccc2)CCCC1CN(C)C (stereo not given)
Ki [1]: 1.5 nM

OCCN1CCN(CCCN2c3ccccc3Sc3ccc(Cl)cc32)CC1 [PERPHENAZINE]
Ki [2]: 23 nM

O=C(c1ccc(F)cc1)C1CCN(CCn2c(=O)[nH]c3ccccc3c2=O)CC1 [KETANSERIN]
Ki [13]: 20000 nM | Ki [8]: 20000 nM

Cc1cccc(C#N)c1-c1cccc2c1-c1cccc3c1[C@@H](C2)N(C)CC3
Ki [2]: 20.8 nM and 3.79 nM

CCCN(CCC)C1CCc2cccc(O)c2C1 (stereo not given) [8-OH-DPAT]
Ki [3]: 150 nM | Ki [14]: > 10000 nM

Cc1c(N=C2NCCN2)cccc1-c1ccccc1
Ki [16]: 200 nM | Ki [17]: 19 nM | Ki [2]: 16 nM

CN(C)Cc1cn(S(=O)(=O)c2ccc(N)cc2)c2ccccc12
Ki [1]: 6.9 nM

Cc1ccc(S(=O)(=O)n2cc3c4c(cccc42)[C@H](O)[C@@H](N)C3)cc1
Ki [1]: 7.2 nM

CCc1c(C)[nH]c2c1C(=O)C(CN1CCOCC1)CC2 (stereo not given) [MOLINDONE]
Ki [2]: 265 nM

CNc1cc(NS(=O)(=O)c2ccc(N)cc2)nc(N)n1
Ki [1]: 1000 nM

CN(C)CCc1cn(S(=O)(=O)c2ccc(N)cc2)c2ccccc12
Ki [1]: 0.8 nM

CN1C[C@H](CNC(=O)OCc2ccccc2)C[C@@H]2c3cccc4[nH]cc(c34)C[C@H]21
Ki ([3]; read-out: Ki): 60 nM | Ki [14]: 400 nM | Ki [15]: 6.4 nM

Cc1cccc(S(=O)(=O)N2CCC[C@@H]2CCN2CCC(C)CC2)c1 [SB-258741]
Ki [2]: 3 nM

COc1cccc2[nH]cc(CCN(C)C)c12
Ki [1]: 154 nM

Cc1cn(S(=O)(=O)c2ccc(N)cc2)c2ccccc12
IC50 [5]: 300 nM | Kb ([5]; read-out: pA2 (converted)): 100 nM | Ki [1]: 12 nM

COc1ccc2[nH]c(C)c(CCN)c2c1
Ki [18]: > 10000 nM | Ki [1]: 80 nM

COc1ccc2c(c1)c(CCN(C)C)cn2-c1ccccc1
Ki [1]: 33 nM

COc1ccc(NS(=O)(=O)c2sc3ccc(Cl)cc3c2C)cc1N1CCN(C)CC1
pKb [6]: 8.5

CNc1cc(Br)cc(NS(=O)(=O)c2ccc(N)cc2)c1
Ki [1]: 20 nM

— ChEMBL document CHEMBL1145819 (J Med Chem, 2003)
